Test system: HMVEC
Assay: human microvascular endothelial (HMVEC) migration assay
Type: cell-based
Settings: Inhibition of HMVEC migration, activators 15 ng/mL bFGF/VEGF, 4 hours at 37 °C, compared to a positive control; for inhibition at 0.0001 µM: 0.1 nM
Experimental: The human microvascular endothelial (HMVEC) migration assay was run according to the procedure of S. S. Tolsma, O. V. Volpert, D. J. Good, W. F. Frazier, P. J. Polverini and N. Bouck, J. Cell Biol. 122, 497-511 (1993).
The HMVEC migration assay was carried out using Human Microvascular Endothelial Cells-Dermal (single donor) and Human Microvascular Endothelial Cells, (neonatal). The BCE or HMVEC cells were starved overnight in DME containing 0.01% bovine serum albumin (BSA). Cells were then harvested with trypsin and resuspended in DME with 0.01 % BSA at a concentration of 1.5 X 10^6 cells per mL. Cells were added to the bottom of a 48 well modified Boyden chamber (Nucleopore Corporation, Cabin John, MD). The chamber was assembled and inverted, and cells were allowed to attach for 2 hours at 37 °C to polycarbonate chemotaxis membranes (5 µm pore size) that had been soaked in 0.01 % gelatin overnight and dried. The chamber was then reinverted, and test substances (total volume of 50 µL), including activators, 15 ng/mL bFGF/VEGF, were added to the wells of the upper chamber. The apparatus was incubated for 4 hours at 37 °C. Membranes were recovered, fixed and stained (Diff Quick, Fisher Scientific) and the number of cells that had migrated to the upper chamber per 3 high power fields counted. Background migration to DME + […] was subtracted and the data reported as the number of cells migrated per 10 high power fields (400X) or, when results from multiple experiments were combined, as the percent inhibition of migration compared to a positive control.

Compound | inhibition at 0.0001 µM (Homo sapiens) [%] | further results
4-methyl-N-{(3R)-1-[(6-methylpyridin-3-yl)carbonyl]pyrrolidin-3-yl}-1,4-diazepane-1-carboxamide [Example 94] |  | % Inhibition @ 0.01 nM (0.01 nM): 57%
Cc1ccc(C(=O)N2CC[C@@H](NC(=O)NCc3ccccc3)C2)cn1 [Example 1, N-benzyl-N'-{(3R)-1-[(6-methylpyridin-3-yl)carbonyl]pyrrolidin-3-yl}urea] | 80 | 
Cc1ccc(C(=O)N2CC[C@@H](NC(=O)N3CCCC3)C2)cn1 [Example 2, N-{(3R)-1-[(6-methyl-3-pyridinyl)carbonyl]-3-pyrrolidinyl}-1-pyrrolidinecarboxamide] | 98 | 
Cc1ccc(C(=O)N2CC[C@@H](NC(=O)NCCCN3CCOCC3)C2)cn1 [Example 3, N-{(3R)-1-[(6-methyl-3-pyridinyl)carbonyl]-3-pyrrolidinyl}-N'-[3-(4-morpholinyl)propyl]urea] | 60 | 
Cc1ccc(C(=O)N2CC[C@@H](NC(=O)NCCc3c[nH]cn3)C2)cn1 [Example 4, N-[2-(1H-imidazol-4-yl)ethyl]-N'-{(3R)-1-[(6-methyl-3-pyridinyl)carbonyl]-3-pyrrolidinyl}urea] | 69 | 
Cc1ccc(C(=O)N2CC[C@@H](NC(=O)NCCc3c[nH]c4ccccc34)C2)cn1 [Example 5, N-[2-(1H-indol-3-yl)ethyl]-N'-{(3R)-1-[(6-methyl-3-pyridinyl)carbonyl]-3-pyrrolidinyl}urea] | 59 | 
CCNC(=O)N[C@@H]1CCN(C(=O)c2ccc(C)nc2)C1 [Example 6, N-ethyl-N'-{(3R)-1-[(6-methyl-3-pyridinyl)carbonyl]-3-pyrrolidinyl}urea] | 70 | 
Cc1ccc(C(=O)N2CC[C@@H](NC(=O)NCC(C)C)C2)cn1 [Example 7, N-isobutyl-N'-{(3R)-1-[(6-methyl-3-pyridinyl)carbonyl]-3-pyrrolidinyl}urea] | 90 | 
CCCC(C)NC(=O)N[C@@H]1CCN(C(=O)c2ccc(C)nc2)C1 (stereo partly drawn) [Example 8, N-(1-methylbutyl)-N'-{(3R)-1-[(6-methyl-3-pyridinyl)carbonyl]-3-pyrrolidinyl}urea] | 56 | 
Cc1ccc(C(=O)N2CC[C@@H](NC(=O)NCC(C)(C)C)C2)cn1 [Example 9, N-{(3R)-1-[(6-methyl-3-pyridinyl)carbonyl]-3-pyrrolidinyl}-N'-neopentylurea] | 71 | 
Cc1ccc(C(=O)N2CC[C@@H](NC(=O)NCCC(C)(C)C)C2)cn1 [Example 10, N-(3,3-dimethylbutyl)-N'-{(3R)-1-[(6-methyl-3-pyridinyl)carbonyl]-3-pyrrolidinyl}urea] | 65 | 
Cc1ccc(C(=O)N2CC[C@@H](NC(=O)NCC(F)(F)F)C2)cn1 [Example 11, N-{(3R)-1-[(6-methyl-3-pyridinyl)carbonyl]-3-pyrrolidinyl}-N'-(2,2,2-trifluoroethyl)urea] | 81 | 
COCC(C)NC(=O)N[C@@H]1CCN(C(=O)c2ccc(C)nc2)C1 (stereo partly drawn) [Example 12, N-(2-methoxy-1-methylethyl)-N'-{(3R)-1-[(6-methyl-3-pyridinyl)carbonyl]-3-pyrrolidinyl}urea] | 77 | 
CCOCCNC(=O)N[C@@H]1CCN(C(=O)c2ccc(C)nc2)C1 [Example 13, N-(2-ethoxyethyl)-N'-{(3R)-1-[(6-methyl-3-pyridinyl)carbonyl]-3-pyrrolidinyl}urea] | 83 | 
Cc1ccc(C(=O)N2CC[C@@H](NC(=O)NCC3CCOC3)C2)cn1 (stereo partly drawn) [Example 14, N-{(3R)-1-[(6-methyl-3-pyridinyl)carbonyl]-3-pyrrolidinyl}-N'-(tetrahydro-3-furanylmethyl)urea] | 57 | 
Cc1ccc(C(=O)N2CC[C@@H](NC(=O)NCC#N)C2)cn1 [Example 15, N-(cyanomethyl)-N'-{(3R)-1-[(6-methyl-3-pyridinyl)carbonyl]-3-pyrrolidinyl}urea] | 64 | 
C#CCNC(=O)N[C@@H]1CCN(C(=O)c2ccc(C)nc2)C1 [Example 16, N-{(3R)-1-[(6-methyl-3-pyridinyl)carbonyl]-3-pyrrolidinyl}-N'-2-propynylurea] | 72 | 
Cc1ccc(C(=O)N2CC[C@@H](NC(=O)NCC3CC3)C2)cn1 [Example 17, N-(cyclopropylmethyl)-N'-{(3R)-1-[(6-methyl-3-pyridinyl)carbonyl]-3-pyrrolidinyl}urea] | 76 | 

Compound | inhibition at 0.0001 µM (Homo sapiens) [%] | further results
Cc1ccc(C(=O)N2CC[C@@H](NC(=O)NC3CCC3)C2)cn1 [Example 18, N-cyclobutyl-N'-{(3R)-1-[(6-methyl-3-pyridinyl)carbonyl]-3-pyrrolidinyl}urea] | 61 | 
Cc1ccc(C(=O)N2CC[C@@H](NC(=O)NC3CCCCC3)C2)cn1 [Example 19, N-cyclohexyl-N'-{(3R)-1-[(6-methyl-3-pyridinyl)carbonyl]-3-pyrrolidinyl}urea] | 63 | 
Cc1ccc(C(=O)N2CC[C@@H](NC(=O)NC3CCC(C)CC3)C2)cn1 (stereo partly drawn) [Example 20, N-(4-methylcyclohexyl)-N'-{(3R)-1-[(6-methyl-3-pyridinyl)carbonyl]-3-pyrrolidinyl}urea] | 67 | 
Cc1ccc(C(=O)N2CC[C@@H](NC(=O)NCC3CCCCC3)C2)cn1 [Example 21, N-(cyclohexylmethyl)-N'-{(3R)-1-[(6-methyl-3-pyridinyl)carbonyl]-3-pyrrolidinyl}urea] | 90 | 
Cc1ccc(C(=O)N2CC[C@@H](NC(=O)NC3CCCCCC3)C2)cn1 [Example 22, N-cycloheptyl-N'-{(3R)-1-[(6-methyl-3-pyridinyl)carbonyl]-3-pyrrolidinyl}urea] | 70 | 
Cc1ccc(C(=O)N2CC[C@@H](NC(=O)N[C@H](CO)CC(C)C)C2)cn1 [Example 23, N-[(1S)-1-(hydroxymethyl)-3-methylbutyl]-N'-{(3R)-1-[(6-methyl-3-pyridinyl)carbonyl]-3-pyrrolidinyl}urea] | 93 | 
Cc1ccc(C(=O)N2CC[C@@H](NC(=O)N[C@@H](CO)CC(C)C)C2)cn1 [Example 24, N-[(1R)-1-(hydroxymethyl)-3-methylbutyl]-N'-{(3R)-1-[(6-methyl-3-pyridinyl)carbonyl]-3-pyrrolidinyl}urea] | 70 | 
Cc1ccc(C(=O)N2CC[C@@H](NC(=O)N[C@H](CO)c3ccccc3)C2)cn1 [Example 25, N-[(1S)-2-hydroxy-1-phenylethyl]-N'-{(3R)-1-[(6-methyl-3-pyridinyl)carbonyl]-3-pyrrolidinyl}urea] | 80 | 
Cc1ccc(C(=O)N2CC[C@@H](NC(=O)NCCCOC(C)C)C2)cn1 [Example 26, N-(3-isopropoxypropyl)-N'-{(3R)-1-[(6-methyl-3-pyridinyl)carbonyl]-3-pyrrolidinyl}urea] | 75 | 
Cc1ccc(C(=O)N2CC[C@@H](NC(=O)NCC(O)CO)C2)cn1 (stereo partly drawn) [Example 27, N-(2,3-dihydroxypropyl)-N'-{(3R)-1-[(6-methyl-3-pyridinyl)carbonyl]-3-pyrrolidinyl}urea] | 83 | 
COc1ccc2[nH]cc(CCNC(=O)N[C@@H]3CCN(C(=O)c4ccc(C)nc4)C3)c2c1 [Example 29, N-[2-(5-methoxy-1H-indol-3-yl)ethyl]-N'-{(3R)-1-[(6-methyl-3-pyridinyl)carbonyl]-3-pyrrolidinyl}urea] | 92 | 
Cc1ccc(C(=O)N2CC[C@@H](NC(=O)NCc3ccc(F)cc3F)C2)cn1 [Example 30, N-(2,4-difluorobenzyl)-N'-{(3R)-1-[(6-methyl-3-pyridinyl)carbonyl]-3-pyrrolidinyl}urea] | 64 | 
Cc1ccc(C(=O)N2CC[C@@H](NC(=O)NCCC(c3ccccc3)c3ccccc3)C2)cn1 [Example 31, N-(3,3-diphenylpropyl)-N'-{(3R)-1-[(6-methyl-3-pyridinyl)carbonyl]-3-pyrrolidinyl}urea] | 79 | 
Cc1ccc(C(=O)N2CC[C@@H](NC(=O)N[C@@H](CO)c3ccccc3)C2)cn1 [Example 32, N-[(1R)-2-hydroxy-1-phenylethyl]-N'-{(3R)-1-[(6-methyl-3-pyridinyl)carbonyl]-3-pyrrolidinyl} urea] | 85 | 
Cc1ccc(C(=O)N2CC[C@@H](NC(=O)N[C@@H](C)c3ccccc3)C2)cn1 [Example 33, N-((3R)-1-[(6-methylpyridin-3-yl)carbonyl]pyrrolidin-3-yl)-N'-[(1S)-1-phenylethyl]urea] | 85 | 
CCCCN(CCCC)C(=O)N[C@@H]1CCN(C(=O)c2ccc(C)nc2Cl)C1 [Example 34, N,N-dibutyl-N'-{(3R)-1-[(2-chloro-6-methylpyridin-3-yl)carbonyl]pyrrolidin-3-yl}urea] |  | inhibition at 0.001 µM (Homo sapiens, 1 nM): 50%
COCCN(C(=O)N[C@@H]1CCN(C(=O)c2ccc(C)nc2Cl)C1)C(C)C [Example 35, N'-{(3R)-1-[(2-chloro-6-methylpyridin-3-yl)carbonyl]pyrrolidin-3-yl}-N-isopropyl-N-(2-methoxyethyl)urea] | 70 | 
